Assay results: patent US20180186742A1, “PICOLINAMIDES AS FUNGICIDES” (Dow AgroSciences LLC, priority 2017, published 2018)
Where two headings read alike, the source gives them in different places.

What was measured:
Zymoseptoria tritici = experiment: Leaf blotch of wheat (SEPTTR), disease control on wheat seedlings; assay type: in vivo; details: for pest or weed control at 121.5 g/ha: low volume application at 121.5 g/H; for pest or weed control at 100 ppm: high volume application at 100 ppm
Procedure: Technical grades of materials were dissolved in acetone, which were then mixed with nine volumes of water containing 110 ppm Triton X-100. The fungicide solutions were applied onto wheat seedlings using an automated booth sprayer to run-off. All sprayed plants were allowed to air dry prior to further handling. All fungicides were evaluated using the aforementioned method for their activity vs. all target diseases, unless stated otherwise. Wheat leaf blotch and brown rust activity were also evaluated using track spray applications, in which case the fungicides were formulated as EC formulations, containing 0.1% Trycol 5941 in the spray solutions. Wheat plants (variety Yuma) were grown from seed in a greenhouse in 50% mineral soil/50% soil-less Metro mix until the first leaf was fully emerged, with 7-10 seedlings per pot. These plants were inoculated with an aqueous spore suspension of Zymoseptoria tritici either prior to or after fungicide treatments. After inoculation the plants were kept in 100% relative humidity (one day in a dark dew chamber followed by two to three days in a lighted dew chamber at 20° C.) to permit spores to germinate and infect the leaf. The plants were then transferred to a greenhouse set at 20° C. for disease to develop. When disease symptoms were fully expressed on the 1st leaves of untreated plants, infection levels were assessed on a scale of 0 to 100 percent disease severity. Percent disease control was calculated using the ratio of disease severity on treated plants relative to untreated plants.

Puccinia triticina = experiment: Wheat brown rust (PUCCRT), disease control on wheat seedlings; assay type: in vivo; details: for pest or weed control at 121.5 g/ha: low volume application at 121.5 g/H; for pest or weed control at 100 ppm: high volume application at 100 ppm
Procedure: Technical grades of materials were dissolved in acetone, which were then mixed with nine volumes of water containing 110 ppm Triton X-100. The fungicide solutions were applied onto wheat seedlings using an automated booth sprayer to run-off. All sprayed plants were allowed to air dry prior to further handling. All fungicides were evaluated using the aforementioned method for their activity vs. all target diseases, unless stated otherwise. Wheat leaf blotch and brown rust activity were also evaluated using track spray applications, in which case the fungicides were formulated as EC formulations, containing 0.1% Trycol 5941 in the spray solutions. Wheat plants (variety Yuma) were grown from seed in a greenhouse in 50% mineral soil/50% soil-less Metro mix until the first leaf was fully emerged, with 7-10 seedlings per pot. These plants were inoculated with an aqueous spore suspension of Puccinia triticina either prior to or after fungicide treatments. After inoculation the plants were kept in a dark dew room at 22° C. with 100% relative humidity overnight to permit spores to germinate and infect the leaf. The plants were then transferred to a greenhouse set at 24° C. for disease to develop. Fungicide formulation, application and disease assessment followed the procedures as described in the Example A.

[1] = 24 h, 1 Day Protectant, read-out: SEPTTR disease control, 1DP, HV activity
[2] = 72 h, 3 Day Curative, read-out: SEPTTR disease control, 3DC, HV activity
[3] = 24 h, 1 Day Protectant, read-out: PUCCRT disease control, 1DP, HV activity
[4] = 72 h, 3 Day Curative, read-out: PUCCRT disease control, 3DC, HV activity

Compound | pest or weed control at 121.5 g/ha (Zymoseptoria tritici; 24 h, 1 Day Protectant, read-out: SEPTTR disease control, 1DP, LV activity) [%] | pest or weed control at 121.5 g/ha (Zymoseptoria tritici; 72 h, 3 Day Curative, read-out: SEPTTR disease control, 3DC, LV activity) [%] | pest or weed control at 121.5 g/ha (Puccinia triticina; 24 h, 1 Day Protectant, read-out: PUCCRT disease control, 1DP, LV activity) [%] | pest or weed control at 121.5 g/ha (Puccinia triticina; 72 h, 3 Day Curative, read-out: PUCCRT disease control, 3DC, LV activity) [%] | pest or weed control at 100 ppm (Zymoseptoria tritici; [1]) [%] | pest or weed control at 100 ppm (Zymoseptoria tritici; [2]) [%] | pest or weed control at 100 ppm (Puccinia triticina; [3]) [%] | pest or weed control at 100 ppm (Puccinia triticina; [4]) [%]
COc1ccc([C@H](C(C)C)[C@H](C)OC(=O)[C@H](C)NC(=O)c2nccc(OC)c2OCOC(C)=O)c(OC)c1 [Compound 264] | < 80 | < 80 | > 80 | > 80 |  |  |  | 
COc1ccnc(C(=O)NCC(=O)O[C@@H](C)[C@H](c2ccc(F)cc2C)C(C)C)c1O [Compound 317] |  |  |  |  | < 80 | < 80 | > 80 | > 80
COc1ccnc(C(=O)N[C@H](C(=O)O[C@@H](C)[C@H](c2ccc(F)cc2C)C(C)C)C(C)C)c1O [Compound 318] |  |  |  |  | < 80 | < 80 | > 80 | > 80
CC[C@H](C)[C@H](NC(=O)c1nccc(OC)c1O)C(=O)O[C@@H](C)[C@H](c1ccc(F)cc1C)C(C)C [Compound 319] |  |  |  |  | < 80 | < 80 | < 80 | < 80
COc1ccnc(C(=O)N[C@@H](CC(C)C)C(=O)O[C@@H](C)[C@H](c2ccc(F)cc2C)C(C)C)c1O [Compound 320] |  |  |  |  | < 80 | < 80 | < 80 | < 80
COc1ccnc(C(=O)N[C@@H](C)C(=O)O[C@@H](C)[C@H](c2cc(C)ccc2C)C(C)C)c1O [Compound 321] |  |  |  |  | < 80 | < 80 | > 80 | > 80
COc1ccnc(C(=O)N[C@@H](C)C(=O)O[C@@H](C)[C@H](c2cccc(F)c2C)C(C)C)c1O [Compound 322] |  |  |  |  | < 80 | < 80 | > 80 | > 80
COc1ccnc(C(=O)N[C@@H](C)C(=O)O[C@@H](C)[C@H](c2ccccc2F)C(C)C)c1O [Compound 323] |  |  |  |  | < 80 | > 80 | > 80 | > 80
COc1ccnc(C(=O)N[C@@H](C)C(=O)O[C@@H](C)[C@H](c2cc(F)ccc2C)C(C)C)c1O [Compound 324] |  |  |  |  | < 80 | < 80 | > 80 | > 80
COc1ccnc(C(=O)N[C@@H](C)C(=O)O[C@@H](C)[C@H](c2ccc(C)cc2C)C(C)C)c1O [Compound 325] |  |  |  |  | > 80 | < 80 | > 80 | > 80
COc1ccnc(C(=O)N[C@@H](C)C(=O)O[C@@H](C)[C@H](c2cccc(C)c2C)C(C)C)c1O [Compound 326] |  |  |  |  | < 80 | > 80 | > 80 | > 80
COc1ccnc(C(=O)N[C@@H](C)C(=O)O[C@@H](C)[C@H](c2ccccc2C)C(C)C)c1O [Compound 327] |  |  |  |  | < 80 | > 80 | > 80 | > 80
COc1ccnc(C(=O)N[C@@H](C)C(=O)O[C@@H](C)[C@H](c2ccc(F)cc2F)C(C)C)c1O [Compound 328] |  |  |  |  | > 80 | > 80 | > 80 | > 80
COc1ccnc(C(=O)N[C@@H](C)C(=O)O[C@@H](C)[C@H](c2ccc(C)cc2F)C(C)C)c1O [Compound 329] |  |  |  |  | < 80 | < 80 | > 80 | > 80
COc1ccnc(C(=O)N[C@@H](C)C(=O)O[C@@H](C)[C@H](c2ccc(Cl)cc2Cl)C(C)C)c1O [Compound 330] |  |  |  |  | < 80 | < 80 | > 80 | > 80
